Among the data in patent publication US12351581B2, “Compounds for FGFR inhibition” (Cogent Biosciences, Inc., priority 2023, dated 2025) are IC50 values, retold here.

One test concerns the target T1, FGFR2 (Homo sapiens, UniProt P21802).
T1 construct: biochemical assays using purified intracellular domains of the respective isoforms; purchased Carna Bioscience 08-134
The test can be described thus: FGFR wild type enzyme assay (HTRF KinEASE-TK). The class given is biochemical. Particulars: ATP 2 uM. An outline of the steps:
(§1)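 Purified intracellular kinase domains, enzyme pre-incubated 30 min with compound (11-point 1:3 dilutions, typically 10,000-0.17 nM), then ATP plus 0.5 uM TK-peptide, 60 min at room temperature in HEPES pH7.5 with Mg2+/Mn2+. HTRF 665/615 ratio converted to percent of control; IC50 from four-parameter logistic fit.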
A general note: Time-resolved FRET reads energy transfer from a long-lived donor to a nearby acceptor.

For another test, the target named is T2, FGFR2 V564I (Homo sapiens, UniProt P21802, V564I).
T2 construct: biochemical assays using purified intracellular domains of the respective isoforms; purchased Carna Bioscience 08-546
T2 sequence (P21802 399-821 V564I limits assumed): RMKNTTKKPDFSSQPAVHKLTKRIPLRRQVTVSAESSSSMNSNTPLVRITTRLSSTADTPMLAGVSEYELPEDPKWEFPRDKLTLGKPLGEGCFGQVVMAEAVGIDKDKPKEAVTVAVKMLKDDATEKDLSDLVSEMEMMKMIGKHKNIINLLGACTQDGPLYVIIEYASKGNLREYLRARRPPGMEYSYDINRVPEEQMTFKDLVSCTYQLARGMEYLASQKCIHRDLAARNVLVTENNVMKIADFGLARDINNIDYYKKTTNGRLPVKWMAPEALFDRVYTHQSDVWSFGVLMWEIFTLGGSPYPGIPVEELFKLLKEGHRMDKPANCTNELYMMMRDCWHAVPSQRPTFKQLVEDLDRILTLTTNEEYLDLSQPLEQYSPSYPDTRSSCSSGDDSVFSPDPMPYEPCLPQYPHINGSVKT
The test can be described thus: FGFR mutant enzyme assay (HTRF KinEASE-TK). In kind it is biochemical. Particulars: ATP 0.4 uM. The method in brief:
as §1

A further test addresses T3, FGFR2 N549H (Homo sapiens, UniProt P21802, N549H).
T3 construct: biochemical assays using purified intracellular domains of the respective isoforms; purchased Carna Bioscience 08-532
The test can be described thus: FGFR mutant enzyme assay (HTRF KinEASE-TK). The note with it: ATP 0.9 uM. In kind it is biochemical. An outline of the steps: as §1

In a further test the target is T4, FGFR2 V564F (Homo sapiens, UniProt P21802, V564F).
T4 construct: biochemical assays using purified intracellular domains of the respective isoforms; purchased SignalChem Biotech F05-12FG
T4 sequence (P21802 399-821 V564F limits assumed): as the sequence (P21802 399-821 V564I limits assumed) above, with I166F counted along it
In words: FGFR mutant enzyme assay (HTRF KinEASE-TK). In kind it is biochemical. Particulars: ATP 1.5 uM. An outline of the steps: as §1

A further test concerns the target FGFR2-WT (Homo sapiens, UniProt P21802). The test can be described thus: Phosphorylated FGFR2-WT (pFGFR2-WT) cell assay, KATOIII cells. Particulars: 1 hour incubation, phospho FGFR2 HTRF. In kind it is cell-based. An outline of the steps: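 KATOIII cells treated 1 h at 37 °C with threefold compound dilutions (10 μM to 0.5 nM). Lysate phospho-FGFR2 (Tyr653/654) read by HTRF.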

Setting [1] is: compound table after the examples, read-out: Enz FGFR2.

Read-outs that look alike come from different tables or passages of the source.

FGFR2-WT, sequence (P21802 430-767 limits assumed): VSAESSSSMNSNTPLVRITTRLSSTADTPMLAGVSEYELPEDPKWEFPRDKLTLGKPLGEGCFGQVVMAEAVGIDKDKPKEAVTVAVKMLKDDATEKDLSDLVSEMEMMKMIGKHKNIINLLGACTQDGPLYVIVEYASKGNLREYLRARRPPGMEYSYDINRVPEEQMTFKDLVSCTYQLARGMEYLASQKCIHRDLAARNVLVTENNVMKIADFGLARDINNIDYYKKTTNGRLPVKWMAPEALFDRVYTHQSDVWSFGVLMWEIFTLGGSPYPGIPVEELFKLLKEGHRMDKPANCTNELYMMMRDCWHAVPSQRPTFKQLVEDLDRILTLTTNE
T3 sequence (P21802 399-821 N549H limits assumed): as the sequence (P21802 399-821 V564I limits assumed) above, with N151H, I166V counted along it
T1 sequence (P21802 399-821 limits assumed): as the sequence (P21802 399-821 V564I limits assumed) above, with I166V counted along it

As for `Cc1c(-c2cc(O[C@H](C)c3ncccc3F)c3c(C#N)cnn3c2)cnn1[C@H]1CCCNC1` [Compound 10, 4-((R)-1-(3-fluoropyridin-2-yl)ethoxy)-6-(5-methyl-1-((S)-piperidin-3-yl)-1H-pyrazol-4-yl)pyrazolo[1,5-a]pyridine-3-carbonitrile], the IC50 turned out to be 0.3 nM on FGFR2 (Table 3, read-out: FGFR2 Enz); 0.3 nM at FGFR2 (setting [1]); 1 nM at FGFR2 V564I; 0.55 nM on FGFR2 N549H; 0.8 nM against FGFR2 V564F; 5 nM at FGFR2-WT.

Turning to `C[C@@H](Oc1cc(-c2cnn([C@H]3CC[C@H](O)CC3)c2)cn2ncc(C#N)c12)c1ccc(F)cn1` [Compound 55, 4-((R)-1-(5-fluoropyridin-2-yl)ethoxy)-6-(1-((1r,4R)-4-hydroxycyclohexyl)-1H-pyrazol-4-yl)pyrazolo[1,5-a]pyridine-3-carbonitrile], the IC50 stood at 0.2 nM on FGFR2 (Table 3, read-out: FGFR2 Enz); 0.2 nM on FGFR2 (setting [1]); 0.6 nM against FGFR2 V564I; 0.13 nM on FGFR2 N549H; 0.3 nM against FGFR2 V564F; 1.6 nM against FGFR2-WT.

For the molecule `Cc1c(-c2cc(O[C@H](C)c3ccc(F)cn3)c3c(C#N)cnn3c2)cnn1[C@H]1CCCN(C(=O)[C@@H](C)O)C1` [Compound 48, 4-((R)-1-(5-fluoropyridin-2-yl)ethoxy)-6-(1-((S)-1-((R)-2-hydroxypropanoyl)piperidin-3-yl)-5-methyl-1H-pyrazol-4-yl)pyrazolo[1,5-a]pyridine-3-carbonitrile], the IC50 was 0.4 nM on FGFR2 (Table 3, read-out: FGFR2 Enz); 0.4 nM on FGFR2 (setting [1]); 1 nM against FGFR2 V564I; 0.4 nM against FGFR2 N549H; 1 nM against FGFR2 V564F; 3 nM at FGFR2-WT.

For `Cc1c(-c2cc(O[C@H](C)c3ccc(F)cn3)c3c(C#N)cnn3c2)cnn1[C@H]1CCCNC1` [Compound 12, 4-((R)-1-(5-fluoropyridin-2-yl)ethoxy)-6-(5-methyl-1-((S)-piperidin-3-yl)-1H-pyrazol-4-yl)pyrazolo[1,5-a]pyridine-3-carbonitrile], the IC50 was 0.45 nM on FGFR2 (Table 3, read-out: FGFR2 Enz); 0.5 nM on FGFR2 (setting [1]); 1.8 nM against FGFR2 V564I; 0.7 nM against FGFR2 N549H; 1.3 nM against FGFR2 V564F; 4.7 nM against FGFR2-WT.

On to `C[C@@H](Oc1cc(-c2cnn(C3CCNCC3)c2)cn2ncc(C#N)c12)c1ccccn1` [Compound 2, (R)-6-(1-(piperidin-4-yl)-1H-pyrazol-4-yl)-4-(1-(pyridin-2-yl)ethoxy)pyrazolo[1,5-a]pyridine-3-carbonitrile], for which the IC50 was found to be 0.16 nM at FGFR2 (Table 3, read-out: FGFR2 Enz); 0.16 nM on FGFR2 (setting [1]); 0.24 nM against FGFR2 V564I; 0.05 nM against FGFR2 N549H; 0.14 nM on FGFR2 V564F; 2.5 nM on FGFR2-WT.

As for `Cc1c(-c2cc(O[C@@H](c3ccc(F)cn3)C(F)(F)F)c3c(C#N)cnn3c2)cnn1[C@H]1CC[C@H](O)CC1` [Compound 69, 6-(1-((1r,4S)-4-hydroxycyclohexyl)-5-methyl-1H-pyrazol-4-yl)-4-((S)-2,2,2-trifluoro-1-(5-fluoropyridin-2-yl)ethoxy)pyrazolo[1,5-a]pyridine-3-carbonitrile], the IC50 on FGFR2 (Table 3, read-out: FGFR2 Enz) is 0.4 nM; on FGFR2 (setting [1]), 0.4 nM; against FGFR2 V564I, 1.6 nM; against FGFR2 N549H, 1 nM; at FGFR2 V564F, 1.6 nM; at FGFR2-WT, 2 nM.

Consider `CN=S1(=O)CCC(n2cc(-c3cc(O[C@H](C)c4ccc(F)cn4)c4c(C#N)cnn4c3)cn2)CC1` (stereo partly drawn) [Compound 58, (R)-4-(1-(5-fluoropyridin-2-yl)ethoxy)-6-(1-(1-(methylimino)-1-oxidohexahydro-116-thiopyran-4-yl)-1H-pyrazol-4-yl)pyrazolo[1,5-a]pyridine-3-carbonitrile], for which the IC50 on FGFR2 (Table 3, read-out: FGFR2 Enz) stood at 0.15 nM; on FGFR2 (setting [1]), 0.15 nM; against FGFR2 V564I, 1 nM; on FGFR2 N549H, 0.15 nM; against FGFR2 V564F it was 0.45 nM; against FGFR2-WT it was 1.6 nM.

Consider `Cc1c(-c2cc(O[C@H](C)c3ccc(F)cn3)c3c(C#N)cnn3c2)cnn1[C@H]1CC[C@](C)(O)CC1` [Compound 22, 4-((R)-1-(5-fluoropyridin-2-yl)ethoxy)-6-(1-((1r,4R)-4-hydroxy-4-methylcyclohexyl)-5-methyl-1H-pyrazol-4-yl)pyrazolo[1,5-a]pyridine-3-carbonitrile], for which the IC50 at FGFR2 (Table 3, read-out: FGFR2 Enz) came out at 0.3 nM; on FGFR2 (setting [1]), 0.3 nM; against FGFR2 V564I it was 1.4 nM; against FGFR2 N549H, 0.4 nM; against FGFR2 V564F it was 1 nM; against FGFR2-WT, 2.7 nM.

Take `CC[C@@H](Oc1cc(-c2cnn([C@H]3CC[C@H](O)CC3)c2C)cn2ncc(C#N)c12)c1ccc(F)cn1` [Compound 60, 4-((R)-1-(5-fluoropyridin-2-yl)propoxy)-6-(1-((1r,4R)-4-hydroxycyclohexyl)-5-methyl-1H-pyrazol-4-yl)pyrazolo[1,5-a]pyridine-3-carbonitrile]: the IC50 on FGFR2 (Table 3, read-out: FGFR2 Enz) was found to be 0.4 nM; at FGFR2 (setting [1]), 0.4 nM; on FGFR2 V564I it was 2 nM; at FGFR2 N549H it was 0.5 nM; at FGFR2 V564F, 1.5 nM; against FGFR2-WT, 3.5 nM.

`Cc1c(-c2cc(OC(C)c3ccc(F)cn3)c3c(C#N)cnn3c2)cnn1[C@H]1CC[C@H](O)CC1` (stereo partly drawn) [Compound 51, 4-(1-(5-fluoropyridin-2-yl)ethoxy)-6-(1-((1r,4r)-4-hydroxycyclohexyl)-5-methyl-1H-pyrazol-4-yl)pyrazolo[1,5-a]pyridine-3-carbonitrile]: the IC50 at FGFR2 (Table 3, read-out: FGFR2 Enz) was determined as 1 nM; on FGFR2 (setting [1]), 1 nM; on FGFR2 V564I, 4 nM; at FGFR2 N549H it was 1 nM; against FGFR2 V564F it was 2 nM; against FGFR2-WT, 6.5 nM.

Turning to `Cc1c(-c2cc(OC(C)c3ccc(F)cn3)c3c(C#N)cnn3c2)cnn1[C@H]1CC[C@@H](O)CC1` (stereo partly drawn) [Compound 52, 4-(1-(5-fluoropyridin-2-yl)ethoxy)-6-(1-((1s,4s)-4-hydroxycyclohexyl)-5-methyl-1H-pyrazol-4-yl)pyrazolo[1,5-a]pyridine-3-carbonitrile], the IC50 on FGFR2 (Table 3, read-out: FGFR2 Enz) came out at 0.7 nM; at FGFR2 (setting [1]), 0.7 nM; on FGFR2 V564I, 3 nM; on FGFR2 N549H, 1 nM; at FGFR2 V564F, 2.4 nM; at FGFR2-WT it was 6 nM.

On to `Cc1c(-c2cc(O[C@H](C)c3ccc(F)cn3)c3c(C#N)cnn3c2)cnn1[C@H]1CCCN(C[C@H](O)CO)C1` [Compound 37, 6-(1-((S)-1-((S)-2,3-dihydroxypropyl)piperidin-3-yl)-5-methyl-1H-pyrazol-4-yl)-4-((R)-1-(5-fluoropyridin-2-yl)ethoxy)pyrazolo[1,5-a]pyridine-3-carbonitrile], for which the IC50 at FGFR2 (Table 3, read-out: FGFR2 Enz) is 0.5 nM; on FGFR2 (setting [1]) it was 0.5 nM; at FGFR2 V564I it was 1.6 nM; at FGFR2 N549H, 0.3 nM; on FGFR2 V564F it was 1 nM; against FGFR2-WT, 5.6 nM.

For `Cc1c(-c2cc(O[C@H](CO)c3ccc(F)cn3)c3c(C#N)cnn3c2)cnn1[C@H]1CC[C@H](O)CC1` [Compound 65, 4-((S)-1-(5-fluoropyridin-2-yl)-2-hydroxyethoxy)-6-(1-((1r,4S)-4-hydroxycyclohexyl)-5-methyl-1H-pyrazol-4-yl)pyrazolo[1,5-a]pyridine-3-carbonitrile], the IC50 came to 3 nM on FGFR2 (Table 3, read-out: FGFR2 Enz); 3 nM at FGFR2 (setting [1]); 10.6 nM against FGFR2 V564I; 3.5 nM at FGFR2 N549H; 9.5 nM against FGFR2 V564F; 21 nM at FGFR2-WT.

With `Cc1c(-c2cc(O[C@H](C)c3ccc(F)cn3)c3c(C#N)cnn3c2)cnn1[C@H]1CC[C@@](C)(O)CC1` [Compound 23, 4-((R)-1-(5-fluoropyridin-2-yl)ethoxy)-6-(1-((1s,4S)-4-hydroxy-4-methylcyclohexyl)-5-methyl-1H-pyrazol-4-yl)pyrazolo[1,5-a]pyridine-3-carbonitrile], the IC50 on FGFR2 (Table 3, read-out: FGFR2 Enz) was found to be 0.4 nM; on FGFR2 (setting [1]), 0.4 nM; at FGFR2 V564I it was 2 nM; against FGFR2 N549H, 0.6 nM; at FGFR2 V564F it was 1 nM; on FGFR2-WT, 4 nM.

Regarding `Cc1c(-c2cc(O[C@H](c3ccc(F)cn3)C(F)(F)F)c3c(C#N)cnn3c2)cnn1[C@H]1CC[C@H](O)CC1` [Compound 70, 6-(1-((1r,4R)-4-hydroxycyclohexyl)-5-methyl-1H-pyrazol-4-yl)-4-((R)-2,2,2-trifluoro-1-(5-fluoropyridin-2-yl)ethoxy)pyrazolo[1,5-a]pyridine-3-carbonitrile], the IC50 on FGFR2 (Table 3, read-out: FGFR2 Enz) was 110 nM; at FGFR2 (setting [1]) it was 110 nM; at FGFR2 V564I it was 420 nM; on FGFR2 N549H, 160 nM; against FGFR2 V564F it was 219 nM; against FGFR2-WT, 790 nM.

For `Cc1c(-c2cc(O[C@H](C)c3ccc(F)cn3)c3c(C#N)cnn3c2)cnn1C` [Compound 21, 6(R)-6-(1,5-dimethyl-1H-pyrazol-4-yl)-4-(1-(5-fluoropyridin-2-yl)ethoxy)pyrazolo[1,5-a]pyridine-3-carbonitrile], the IC50 at FGFR2 (Table 3, read-out: FGFR2 Enz) was determined as 1.7 nM; on FGFR2 (setting [1]), 1.7 nM; at FGFR2 V564I, 11 nM; against FGFR2 N549H, 3 nM; at FGFR2 V564F, 6 nM; on FGFR2-WT it was 24 nM.
